# From US9623073B2, “Learning motivation improvers” (SUNTORY HOLDINGS LIMITED, priority 2009, dated 2017)
# Read-outs that look alike come from different tables or passages of the source.
# Legend:
# [1] = molecular target: T1, human serotonin transporter expressed in CHO cells (Homo sapiens, UniProt P31645); test: Inhibitory activity on serotonin transporter binding (3H-imipramine)
# T1 construct: expressed in transfected cells; host or cells: CHO cells
# Description: As used herein, the term “SSRI antidepressant” is intended to mean an agent that selectively binds to the serotonin transporter and inhibits the reuptake of serotonin through this serotonin transporter. Inhibitory activity on serotonin transporter binding may be measured, for example, as described in Eur. J. Pharmacol., 368: 277-283, 1999. Namely, it is measured by determining whether ^3H-labeled imipramine binds to the human serotonin transporter expressed in CHO cells.
# (§1) Various cyclic dipeptides were measured for their inhibitory activity on serotonin transporter binding and norepinephrine transporter binding, as described in the prior documents mentioned above (Eur J Pharmacol, 368, 277-283, 1999 for inhibitory activity on serotonin transporter binding; and Nature, 350, 350-354, 1991 for inhibitory activity on noradrenaline transporter binding). Compound C was synthesized by Peptide Institute, Inc., Japan, and the other cyclic dipeptides were purchased from Bachem AG (Bubendorf, Switzerland). The results were expressed as IC50 values, i.e., the concentrations of the various cyclic peptides required for 50% inhibition of binding to each transporter (Table 1).
# rats = test: 28-day repeated dose toxicity study; assay type: in vivo
# C57BL/6 mice = test: Morris water maze (MWM) after open space swimming (OSS), learning motivation; assay type: in vivo; settings: for improving effect on learning motivation over control group (OSS-Vehicle): 20 mg/kg, MWM, FIG. 2
# Description: On the other hand, the Morris water maze test has been reported as a method for measuring spatial memory and learning (Learn. Motiv. 12, 239-260 (1981)). In this test, the time required to reach an escape platform (escape latency) is used as a parameter for evaluation, because mice will remember their surrounding scenery and swim in a pool filled with water to try to find and reach the escape platform, which is a goal, with their memory as a guide. Since mice to be used in this test are treated to reduce their motivation by being allowed to swim in a pool having no escape platform before the Morris water maze test, a reduction in the time required to reach the escape platform can be regarded as an improvement in learning motivation.
# Compound A was evaluated for its antidepressive effect and enhancing effect on learning motivation by the method known in the art, i.e., Morris Water Maze (MWM).
# First, water which had been colored black with Indian ink was filled into a cylindrical tank of 90 cm diameter and 35 cm height to give a water depth of 20 cm, and the water temperature was set to 22±1° C. To this tank, C57BL/6 mice (male, 9 weeks of age) were each transferred and allowed to experience open space swimming (OSS). Upon OSS, mice will cause changes in their behavior and enter a state corresponding to depression. After repeating OSS for 5 days, the mice were divided into 7 groups.
# Next, in the above cylindrical tank of 90 cm diameter and 35 cm height, an escape platform of 10 cm diameter was placed at a water depth of 0.5 cm. The above 7 groups of mice were each orally administered with compound A (Bachem AG (Bubendorf, Switzerland)) or with a comparative drug, fluvoxamine maleate, in the form of a suspension in physiological saline. After 60 minutes, each mouse was transferred to the tank provided with the escape platform, and measured for the time required to find out the invisible escape platform placed below the water surface (i.e., escape latency) to evaluate the spatial memory and learning ability of each mouse (MWM). As control mice, animals experiencing no OSS were administered with physiological saline and subjected to MWM. MWM was repeated five times a day for 10 days.
# In the same manner as shown in Example 2, mice were administered with 20 mg/kg compound A and then subjected to the MWM test. As a control, a linear dipeptide (Phe-Phe) was administered at 20 mg/kg, followed by the MWM test.
# In the same manner as shown in Example 2, another group receiving 0.002 mg/kg administration was prepared and subjected to the same MWM test.
# mice = test: Single-dose (acute) toxicity study; assay type: in vivo; settings: administered at 2 g/kg
# [2] = Genetic toxicity studies (Ames test, chromosomal aberration test, mouse micronucleus test)
# [3] = molecular target: T2, human norepinephrine transporter expressed in CHO cells (Homo sapiens, UniProt P23975); test: Inhibitory activity on norepinephrine transporter binding (3H-nisoxetine); settings: for IC50: concentration required for 50% inhibition of binding
# T2 construct: expressed in transfected cells; host or cells: CHO cells
# Description: The term “SNRI antidepressant” is intended to mean an agent that binds to both serotonin and norepinephrine transporters, and inhibits the reuptake of serotonin and norepinephrine. Inhibitory activity on norepinephrine transporter binding may be measured, for example, as described in Nature, 350: 350-354, 1991. Namely, it is measured by determining whether ^3H-labeled nisoxetine binds to the human norepinephrine transporter expressed in CHO cells.
# as §1
# [4] = concentration required for 50% inhibition of binding, read-out: IC50, serotonin transporter (converted)
# T1 sequence (P31645 whole entry): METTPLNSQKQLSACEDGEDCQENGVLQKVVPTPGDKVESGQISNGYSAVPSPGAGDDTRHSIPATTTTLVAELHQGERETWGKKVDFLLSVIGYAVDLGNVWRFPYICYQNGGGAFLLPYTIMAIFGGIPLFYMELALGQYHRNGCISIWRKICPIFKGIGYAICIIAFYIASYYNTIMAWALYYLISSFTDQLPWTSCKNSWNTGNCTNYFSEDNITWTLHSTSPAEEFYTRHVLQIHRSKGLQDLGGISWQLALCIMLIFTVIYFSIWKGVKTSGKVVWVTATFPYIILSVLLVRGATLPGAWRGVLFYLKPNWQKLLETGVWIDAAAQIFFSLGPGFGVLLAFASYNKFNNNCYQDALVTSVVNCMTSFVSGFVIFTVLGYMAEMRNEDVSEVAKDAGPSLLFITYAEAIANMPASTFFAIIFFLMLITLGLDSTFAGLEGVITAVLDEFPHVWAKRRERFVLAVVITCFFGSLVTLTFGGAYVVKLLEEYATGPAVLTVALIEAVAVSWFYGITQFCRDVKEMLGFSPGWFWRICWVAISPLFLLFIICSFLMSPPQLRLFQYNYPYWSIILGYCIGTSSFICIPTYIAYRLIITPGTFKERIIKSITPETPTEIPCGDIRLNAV
# T2 sequence (P23975 whole entry): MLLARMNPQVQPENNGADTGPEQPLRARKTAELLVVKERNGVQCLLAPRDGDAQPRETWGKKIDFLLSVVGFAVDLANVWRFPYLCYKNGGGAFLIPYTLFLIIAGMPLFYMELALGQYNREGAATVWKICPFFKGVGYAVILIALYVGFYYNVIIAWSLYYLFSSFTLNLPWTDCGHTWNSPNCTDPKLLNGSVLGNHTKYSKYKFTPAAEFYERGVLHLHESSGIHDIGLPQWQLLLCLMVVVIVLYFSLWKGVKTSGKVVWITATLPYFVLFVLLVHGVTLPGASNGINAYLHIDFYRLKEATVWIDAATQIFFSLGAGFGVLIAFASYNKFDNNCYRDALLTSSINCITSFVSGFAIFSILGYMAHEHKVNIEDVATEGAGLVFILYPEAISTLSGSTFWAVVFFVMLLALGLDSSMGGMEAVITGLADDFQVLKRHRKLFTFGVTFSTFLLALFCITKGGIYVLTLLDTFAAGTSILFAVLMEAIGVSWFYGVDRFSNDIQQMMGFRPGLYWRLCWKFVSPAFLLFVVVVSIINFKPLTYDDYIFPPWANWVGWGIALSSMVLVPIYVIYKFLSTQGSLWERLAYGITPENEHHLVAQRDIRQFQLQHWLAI
Molecule,inhibitory activity on serotonin transporter binding (in words) [1],"IC50 [1, 4]",inhibitory activity on norepinephrine transporter binding (in words) [3],IC50 [3],further results
"O=C1N[C@@H](Cc2ccccc2)C(=O)N[C@H]1Cc1ccccc1 [Compound A, 2,5-piperazinedione,3,6-bis(phenylmethyl)-,(3S,6S)]",have inhibitory activity on serotonin transporter binding,8.15 µM,–,–,"IC50 ([1]; read-out: concentration (IC50) required for 50% inhibition of serotonin transporter binding): 8.1 µM; maximum no-effect dose (rats): ≥ 2 g/kg/day; reduction of escape latency compared to control group (OSS-Saline) (C57BL/6 mice; 0.02 mg/kg oral, at 10 days of MWM): around 20%; time required to reach the escape platform versus fluvoxamine maleate group (C57BL/6 mice; 20 mg/kg oral, at 10 days of MWM): substantially the same; improving effect on learning motivation over control group (OSS-Vehicle) (C57BL/6 mice): significant improving effect on learning motivation; human dose predicted from the effective dose in mice (C57BL/6 mice; 1/10 of the mouse dose 0.02 mg/kg): 0.1 mg/human (50 kg); escape latency, dose dependence (C57BL/6 mice; OSS mice, oral, MWM for 10 days, FIG. 1): dose-dependent reduction in the escape latency; dose at which the effect is exerted (C57BL/6 mice; mice, time to reach the escape platform at 7 days of MWM, FIG. 3): ≥ 0.02 mg/kg; toxicity in single-dose (acute) toxicity study (mice): no toxicity; mutagenicity [2]: no mutagenicity"
"O=C1N[C@@H](Cc2c[nH]c3ccccc23)C(=O)N2CCC[C@@H]12 [Compound C, pyrrolo[1,2-a]pyrazine-1,4-dione,hexahydro-3-(1H-indol-3-ylmethyl)-,(3S,8aS)]",have inhibitory activity on serotonin transporter binding,3740 µM,–,–,–
Phe-Phe [reference compound],–,–,–,–,improving effect on learning motivation over control group (OSS-Vehicle) (C57BL/6 mice): not confirmed to have a significant effect
"O=C1N[C@@H](Cc2c[nH]cn2)C(=O)N2CCC[C@@H]12 [Compound B, pyrrolo[1,2-a]pyrazine-1,4-dione,hexahydro-3-(1H-imidazol-4-ylmethyl)-,(3S,8aS)]",have inhibitory activity on serotonin transporter binding,2480 µM,–,–,–
"O=C1N[C@@H](Cc2c[nH]c3ccccc23)C(=O)N[C@H]1Cc1c[nH]c2ccccc12 [Compound D, 2,5-piperazinedione,3,6-bis(1H-indol-3-ylmethyl)-,(3S,6S)]",–,–,have inhibitory activity on norepinephrine transporter binding,148 µM,–
"CC(C)C[C@@H]1NC(=O)[C@@H]2CCCN2C1=O [Compound E, pyrrolo[1,2-a]pyrazine-1,4-dione,hexahydro-3-(2-methylpropyl)-,(3S,8aS)]",–,–,have inhibitory activity on norepinephrine transporter binding,2000 µM,–
"CC(C)[C@@H]1NC(=O)[C@@H]2CCCN2C1=O [Compound F, pyrrolo[1,2-a]pyrazine-1,4-dione,hexahydro-3-(1-methylethyl)-,(3S,8aS)]",–,–,have inhibitory activity on norepinephrine transporter binding,10700 µM,–
